Data: the CheMixHub viscosity set
± gives the uncertainty stated by the source.

Assay: xn = mol fraction of the nth substance listed

Cc1cccc(C)c1 + C1CCCCC1
101 kPa
Conditions	viscosity [mPa·s]
303 K, x1 = 0.1017	0.7217 ± 0.0051
303 K, x1 = 0.2009	0.6601 ± 0.0048
303 K, x1 = 0.3085	0.6191 ± 0.0046
303 K, x1 = 0.4005	0.5943 ± 0.0045
303 K, x1 = 0.503	0.5759 ± 0.0045
303 K, x1 = 0.5848	0.5648 ± 0.0044
303 K, x1 = 0.7009	0.552 ± 0.0044
303 K, x1 = 0.8041	0.5484 ± 0.0045
303 K, x1 = 0.9025	0.5445 ± 0.0045
308.15 K, x2 = 0.0628	0.516 ± 0.0094
308.15 K, x2 = 0.1619	0.5217 ± 0.0094
308.15 K, x2 = 0.2398	0.522 ± 0.0095
308.15 K, x2 = 0.3421	0.5304 ± 0.0096
308.15 K, x2 = 0.4497	0.5417 ± 0.0097
308.15 K, x2 = 0.5501	0.5626 ± 0.01
308.15 K, x2 = 0.6692	0.587 ± 0.01
308.15 K, x2 = 0.7673	0.6144 ± 0.011
308.15 K, x2 = 0.8649	0.6595 ± 0.011
308.15 K, x2 = 0.9489	0.7148 ± 0.012
313 K, x1 = 0.1017	0.6251 ± 0.0045
313 K, x1 = 0.2009	0.5799 ± 0.0043
313 K, x1 = 0.3085	0.548 ± 0.0041
313 K, x1 = 0.4005	0.5296 ± 0.0041
313 K, x1 = 0.503	0.5178 ± 0.0041
313 K, x1 = 0.5848	0.508 ± 0.0041
313 K, x1 = 0.7009	0.5009 ± 0.0041
313 K, x1 = 0.8041	0.493 ± 0.0041
313 K, x1 = 0.9025	0.492 ± 0.0042
313.15 K, x2 = 0.0628	0.4892 ± 0.009
313.15 K, x2 = 0.1619	0.4949 ± 0.0091
313.15 K, x2 = 0.2398	0.4963 ± 0.0091
313.15 K, x2 = 0.3421	0.5022 ± 0.0092
313.15 K, x2 = 0.4497	0.5152 ± 0.0093
313.15 K, x2 = 0.5501	0.5304 ± 0.0096
313.15 K, x2 = 0.6692	0.5548 ± 0.0099
313.15 K, x2 = 0.7673	0.5837 ± 0.01
313.15 K, x2 = 0.8649	0.6213 ± 0.011
313.15 K, x2 = 0.9489	0.6685 ± 0.011
323 K, x1 = 0.1017	0.5481 ± 0.004
323 K, x1 = 0.2009	0.5125 ± 0.0039
323 K, x1 = 0.3085	0.4884 ± 0.0038
323 K, x1 = 0.4005	0.4736 ± 0.0037
323 K, x1 = 0.503	0.4625 ± 0.0037
323 K, x1 = 0.5848	0.4562 ± 0.0037
323 K, x1 = 0.7009	0.45 ± 0.0037
323 K, x1 = 0.8041	0.4466 ± 0.0038
323 K, x1 = 0.9025	0.4461 ± 0.0038

Nc1ccccc1Cl + CCCCOCCO
303.15 K, 101 kPa
Conditions	viscosity [mPa·s]
x1 = 0.1461	3.066 ± 0.78
x1 = 0.2298	3.194 ± 0.81
x1 = 0.3377	3.344 ± 0.85
x1 = 0.4573	3.496 ± 0.89
x1 = 0.563	3.619 ± 0.92
x1 = 0.6667	3.722 ± 0.95
x1 = 0.7494	3.786 ± 0.96
x1 = 0.8351	3.833 ± 0.98
x1 = 0.9459	3.859 ± 0.98

Cc1ccccc1N + ClC(Cl)(Cl)Cl
viscosity [mPa·s], 100 kPa
Conditions	x2 = 0.0901	x2 = 0.1916	x2 = 0.2917	x2 = 0.3903	x2 = 0.4988	x2 = 0.6089	x2 = 0.6981	x2 = 0.7941	x2 = 0.8847
298.15 K	3.473 ± 0.074	3.194 ± 0.068	2.917 ± 0.062	2.642 ± 0.056	2.337 ± 0.05	2.026 ± 0.043	1.772 ± 0.038	1.497 ± 0.032	1.235 ± 0.026
303.15 K	3.049 ± 0.065	2.812 ± 0.06	2.575 ± 0.055	2.34 ± 0.05	2.079 ± 0.044	1.812 ± 0.039	1.593 ± 0.034	1.356 ± 0.029	1.13 ± 0.024
308.15 K	2.65 ± 0.057	2.452 ± 0.053	2.254 ± 0.048	2.056 ± 0.044	1.836 ± 0.039	1.611 ± 0.034	1.426 ± 0.03	1.224 ± 0.026	1.032 ± 0.022
313.15 K	2.34 ± 0.05	2.172 ± 0.047	2.003 ± 0.043	1.834 ± 0.039	1.646 ± 0.035	1.452 ± 0.031	1.292 ± 0.027	1.118 ± 0.024	0.951 ± 0.02
318.15 K	2.033 ± 0.044	1.895 ± 0.041	1.755 ± 0.038	1.616 ± 0.035	1.459 ± 0.031	1.296 ± 0.028	1.162 ± 0.025	1.016 ± 0.022	0.874 ± 0.019

C=CCC[n+]1ccn(CCCC)c1.[Br-] + O
viscosity [mPa·s], 101.33 kPa
Conditions	x1 = 0.0008989	x1 = 0.00189	x1 = 0.003585	x1 = 0.005487	x1 = 0.007167	x1 = 0.008848
293.15 K	1.032 ± 0.032	1.064 ± 0.033	1.12 ± 0.034	1.182 ± 0.036	1.24 ± 0.038	1.289 ± 0.039
298.15 K	0.915 ± 0.028	0.943 ± 0.029	0.988 ± 0.03	1.046 ± 0.032	1.094 ± 0.033	1.137 ± 0.035
303.15 K	0.818 ± 0.025	0.844 ± 0.026	0.883 ± 0.027	0.931 ± 0.028	0.975 ± 0.03	1.011 ± 0.031
308.15 K	0.736 ± 0.023	0.758 ± 0.023	0.795 ± 0.024	0.837 ± 0.026	0.874 ± 0.027	0.902 ± 0.028
313.15 K	0.667 ± 0.02	0.687 ± 0.021	0.719 ± 0.022	0.757 ± 0.023	0.789 ± 0.024	0.815 ± 0.025

O=S1(=O)CCCC1 + CCCCO
viscosity [mPa·s], 101 kPa
Conditions	x1 = 0.1066	x1 = 0.191	x1 = 0.2871	x1 = 0.3889	x1 = 0.4851	x1 = 0.5891	x1 = 0.6937	x1 = 0.7935	x1 = 0.9023
303.15 K	2.084 ± 0.023	2.148 ± 0.023	2.32 ± 0.025	2.582 ± 0.029	2.914 ± 0.034	3.395 ± 0.041	4.117 ± 0.051	5.218 ± 0.068	7.192 ± 0.097
308.15 K	1.855 ± 0.019	1.912 ± 0.02	2.06 ± 0.022	2.291 ± 0.026	2.59 ± 0.03	3.028 ± 0.035	3.676 ± 0.044	4.65 ± 0.057	6.369 ± 0.08
313.15 K	1.659 ± 0.016	1.711 ± 0.018	1.842 ± 0.02	2.048 ± 0.023	2.316 ± 0.026	2.715 ± 0.031	3.3 ± 0.038	4.167 ± 0.049	5.669 ± 0.068

O=S1(=O)CCCC1 + NCCO
viscosity [mPa·s], 101 kPa
Conditions	x2 = 0.1	x2 = 0.3369	x2 = 0.5426	x2 = 0.7423	x2 = 0.8999
303.15 K	14.02 ± 0.28	11.47 ± 0.23	9.923 ± 0.2	9.547 ± 0.19	9.78 ± 0.2
323.15 K	7.103 ± 0.14	6.2 ± 0.12	5.815 ± 0.12	5.85 ± 0.12	6.195 ± 0.12

Cc1cccc(C)c1 + Cc1ccc(C)cc1
viscosity [mPa·s], 101.3 kPa
Conditions	298.15 K	303.15 K
x1 = 0.0856	–	0.5666 ± 0.0049
x1 = 0.0857	0.6046 ± 0.0052	–
x1 = 0.1427	–	0.5659 ± 0.0049
x1 = 0.1428	0.6026 ± 0.0052	–
x1 = 0.2528	0.5998 ± 0.0052	0.5651 ± 0.0049
x1 = 0.3046	–	0.5648 ± 0.0049
x1 = 0.3922	0.5968 ± 0.0051	0.5643 ± 0.0049
x1 = 0.474	0.5955 ± 0.0051	0.5641 ± 0.0049
x1 = 0.5823	–	0.5636 ± 0.0049
x1 = 0.5824	0.5942 ± 0.0051	–
x1 = 0.6995	0.5935 ± 0.0051	0.5627 ± 0.0049
x1 = 0.8337	0.5928 ± 0.0051	–
x1 = 0.8339	–	0.5614 ± 0.0049
x1 = 0.9538	0.5899 ± 0.0051	0.5602 ± 0.0049
